Measurements taken from US20260272865A1, “HYDROXYPHENYL PROPANOATE COMPOUNDS FOR TUMOUR IMMUNOTHERAPY, COMPOSITIONS AND USES THEREOF” (UTI LIMITED PARTNERSHIP, priority 2023, published 2026).
“Also recorded” adds a separate entry of the source.

Experiments:
M3-9-M tumours = experiment: Orthotopic M3-9-M rhabdomyosarcoma: tumour immune surveillance, growth, overall survival
Experimental: Tumour cells were orthotopically implanted into 6-8 week old mice. […] For experiments with rhabdomyosarcoma models, mice were orthotopically implanted with 1.5×10^5 M3-9-M or M3-9-M^OVA cells in 50 μL of PBS into the right-behind leg gastrocnemius muscle using an insulin syringe. RMS tumour volume was calculated by subtracting the volume of the gastrocnemius muscle before tumour implantation from the volume after tumour implantation (length×width×height). […] Tumour measurements were taken twice weekly using skin calipers, from implantation day to either experimental or humane endpoints.
Metabolite compounds were obtained from Sigma-Aldrich and prepared into metabolite stock solutions by dissolving them into UltraPure™ DNase/RNase-Free Distilled Water (Invitrogen™) with 1.0N NaOH (Sigma). The pH of the stock solutions was adjusted to 7.4-7.6 and determination of the endotoxin level of the solutions was completed through a limulus amebocyte lysate (LAL) test. […] To test the metabolite effects on anti-tumour immunity, 100 μL of the metabolite at 83 mg/kg bodyweight per mouse was administered intraperitoneally every 48 hours for seven doses. […] Three doses of 250 μg of either anti-PD-1 or anti-PD-L1 were administered intraperitoneally post tumour implantation on day 10, 13 and 16. To neutralize CD8 T cell in mice, anti-CD8 (clone 2.43; BioXcell) monoclonal antibody was used. 250 μg of anti-CD8 antibody in PBS per mouse was injected intraperitoneally 7 and 1 day before tumour implantation, followed by administering 100 μg of anti-CD8 in PBS into the mice on day 3, 7, and 10.

IRF pathway = type: cell-based, human
[1] = test system: GSDMD-mediated anti-tumour immunity; experiment: Orthotopic M3-9-M^OVA RMS in WT vs GSDMD-KO mice; type: in vivo, mouse
Text: It was hypothesized that the HPP metabolite enhances cancer immunity by targeting a critical signalling protein involved in the NF-κB pathway. […] Through nonparametric analysis of the response curves (NPARC) (Mol. Cell. Proteomics 18, (2019)), 647 potential protein targets of 3,2-HPP metabolite were identified (FIG. 10b). To narrow down the investigation, GSDMD was focused on (FIG. 10c, d), which is a cell membrane pore-forming protein that plays a critical role in inflammasome pathway, IL-1β release and tumour immunity (Cell Rep. 34, (2021); Cell Res. 25, 1285-98 (2015); J. Immunother. Cancer 10, (2022); Cell Rep. 41, (2022); Int. Immunopharmacol. 74, (2019); J. Dig. Dis. 19, (2018); Int. J. Biol. Sci. 17, (2021); Nat. Commun. 13, 1-20 (2022); BMC Cancer 20, (2020); Oncogene 41, 5092-5106 (2022)). A correlation between the expression of inflammasome genes, GSDMD and NF-κB1 in tumour infiltrated immune cells was observed (FIG. 11). Whether 3,2-HPP targets GSDMD-mediated anti-tumour immunity was validated by orthotopically implanting M3-9-M^OVA RMS into the gastrocnemius muscle of male C57BL/6NJ (WT) and C57BL/6N-Gsdmdem4Fcw/J (KO) mice (FIG. 10e).

[2] = test system: GSDMD regulated cytokines; experiment: Cytokine level of tumour interstitial fluid of M3-9-M^OVA tumours; type: in vivo, mouse
Experimental: Cells were seeded in a 96-well plate at a density of 0.5-1.0×10^6 cells/well and treated with PRR agonists in combination with or without metabolites. To measure cytokine levels, culture supernatant was collected at specific timepoints. To check cytokine levels of the tumour interstitial fluid, samples were prepared following the protocol, as mentioned by Kim et al (Nat. Commun. 8, (2017)). Cellular IL-1 levels were determined by incubating HEK-Blue™ IL-1β cells ([…]) with the collected culture supernatant and measuring the SEAP levels in the culture medium using QUANTI-Blue™ solution ([…]). Multiplexed quantification of cytokines, chemokines, and growth factors was also conducted by Eve Technologies Corp. (Calgary, Alberta) using the Luminex™ 200 system (Luminex, Austin, TX, USA).

M3-9-M^OVA tumours = experiment: Orthotopic M3-9-M^OVA rhabdomyosarcoma in IMDM-CR mice: immune surveillance, overall survival; type: in vivo, mouse
OVA-specific CD8 T cells = experiment: Flow cytometry of OVA-specific CD8 T cells within M3-9-M^OVA tumours; type: in vivo, mouse; details: male IMDM-CR mice, 18 days after implantation
Experimental: Tumours were isolated from mice and single cell suspensions were made using a mouse tumour dissociation kit following the manufacturer's instructions (Miltenyi Biotec). The isolated tumours were minced into pieces ~2-4 mm in diameter using a sterile scalpel, homogenized the tumour samples in RPMI 1640 media and enzyme mix for 1 minute, and incubated the homogenates for 40 minutes with continuous gentle shaking at 37° C. The homogenates were then filtered through a 70 μm cell strainer followed by centrifuging the single cell suspensions. The red blood cells (RBC) were removed using RBC lysis buffer. A Percoll gradient based leukocyte separation was performed followed by live and dead cell staining using Zombie Aqua dye (BioLegend). Cell surface markers were stained using ant-CD4-FITC (clone RM4-4, BioLegend), anti-CD8-PE.Cy7 (clone 53-6.7, BioLegend), anti-CD3-BV421 (clone 145-2C11, BioLegend), anti-CD45-APC.Cy7 (clone 30-F11, BioLegend), anti-PD-1-FITC (clone 29F.1A12, BioLegend), anti-TIM3-PE (clone RMT3-23, BioLegend) and anti-LAG3-PerCP/Cy5.5 (clone C9B7W, BioLegend) for T lymphocytes. For OVA-specific CD8 T cell detection, H-2K(b) chicken ova 257-264 human B2M SIINFEKL Alexa 647-labeled tetramer was used. The cells were washed after staining with FACS buffer and quantified using the Attune NxT Flow Cytometer (Thermo Fisher Scientific).

NF-κB pathway = experiment: NF-κB activity reporter assay in THP1-Dual cells; type: cell-based, human
Experimental: NF-κB and IRF induction assays were performed using mouse RAW-Dual™ (InvivoGen) and human THP1-Dua™ (InvivoGen) reporter cell lines. The cells were resuspended in freshly prepared test media at a concentration of 1.0×10^6 cells/mL for RAW-Dual™ and 5.0×10^5 cells/mL for THP1-Dual™. 180 μL of cells were seeded per well in a standard 96-well plate and optimized the concentration of several PRR agonists that trigger NF-κB and IRF. To test the metabolite effect on these pathways, 10 μL of the optimized receptor agonist, 10 μL of the 2 mM metabolite solution or vehicle was added to each well, making a final volume of 200 μL. To neutralize IL-1 receptor signalling, anti-IL-1a (clone 7D4, InvivoGen) and anti-IL-1β (clone 4H5, InvivoGen) antibodies were added and IgG1 isotype (clone T8E5, InvivoGen) was used as a control, as per manufacturer's recommendation. NF-κB activity was determined by measuring secreted embryonic alkaline phosphatase (SEAP) levels using QUANTI-Blue™ solution (InvivoGen). After aliquoting 20 μL of cell culture supernatant into 180 μL of QUANTI-Blue™, the conversion of color to blue was monitored and SEAP levels were determined using a SpectraMax i3 from Molecular Devices at 650 nm. To assess IRF induction, secreted lucia luciferase levels were measured in the culture medium using QUANTI-Luc™ solution (InvivoGen). 20 μL of cell culture supernatant was aliquoted into 50 μL of QUANTI-Luc™ solution and the luminescence reading was immediately recorded using the SpectraMax i3.

O=C(O)CCc1ccccc1O [Compound I-1, 3-(2-hydroxyphenyl)propanoic acid]
overall survival, combination with ABX vs either treatment alone (M3-9-M tumours; female IMDM-CR mice, M3-9-M tumours, ABX plus 3,2-HPP): even higher overall survival | overall survival, combination with anti-PD-1 vs anti-PD-1 alone (M3-9-M tumours; female IMDM-CR mice, M3-9-M tumours, 3,2-HPP i.p. plus anti-PD-1): further improvement | efficacy of treatment after depletion of CD8 T cells (M3-9-M tumours; female IMDM-CR mice, M3-9-M, anti-CD8 neutralizing antibody (clone 2.43)): abrogated the efficacy | immune surveillance of M3-9-M tumours (overall survival) (M3-9-M tumours; female IMDM-CR mice, i.p. treatment from day 1 post-implantation vs vehicle): enhance the immune surveillance | effect on ABX-reduced immune surveillance (M3-9-M tumours; female IMDM-JAX mice on ABX-supplemented drinking water, M3-9-M tumours): counteracted the negative effect of ABX | overall survival (M3-9-M tumours; female IMDM-JAX mice, M3-9-M tumours, i.p. 3,2-HPP): increased the overall survival | response of non-immunogenic M3-9-M tumours to treatment (M3-9-M tumours; male IMDM-CR mice, i.p. treatment from day 1): did not respond | IRF pathway activation combined with PRR agonists (IRF pathway): potentiate | effect on tumours implanted in GSDMD-KO mice ([1]; male C57BL/6N-Gsdmdem4Fcw/J (KO) mice): had no effect | overall survival ([1]; male C57BL/6NJ (WT) mice): increased overall survival | tumour growth ([1]; male C57BL/6NJ (WT) mice): decreased tumour growth | IL-1β release ([2]; M3-9-M^OVA tumours): notable increase | secretion of GSDMD regulated cytokines / cytokine milieu in TME ([2]; male JAX C57BL/6 mice, 14 days, treatment from day 1, listed as 3,2-HPP): impacted the secretion; also recorded: significantly shifts | overall survival, treatment initiated seven days after implantation (M3-9-M^OVA tumours; IMDM-CR mice, M3-9-M^OVA, treatment started 7 days after implantation): still effective | immune surveillance of M3-9-M^OVA tumours (overall survival) (M3-9-M^OVA tumours; male IMDM-CR mice, i.p. treatment from day 1 post-implantation): enhance the immune surveillance | expression of exhaustion markers PD1, TIM3, LAG3 on OVA-specific CD8 T cells (OVA-specific CD8 T cells): no significant changes | frequency of OVA-specific CD8 T cells in the tumour (OVA-specific CD8 T cells): increase the frequency | NF-κB pathway activation combined with PRR agonists (NF-κB pathway; LPS or other NF-κB pathway inducers): potentiate | NF-κB pathway activation when treated with LPS (NF-κB pathway; LPS, 16 hours, vs vehicle): potentiates
